Measured values published in article PMC4696656, “Insights into the Mechanism of Action of Bactericidal Lipophosphonoxins” (PLoS ONE, 2015).
≈ marks a conversion by molar mass, not a printed value. Where “and” joins values, the source holds several entries; their conditions need not be identical. Equal values may be shown once.

Key:
[1] = tested on: Bacteroides fragilis CCM 4712; test: MIC against anaerobic bacteria, tube dilution method; format: cell-based; conditions: CCM4712, anaerobic conditions, 35°C, 48 h (confirmed 72 h)
Streptococcus agalactiae [2] = test: MIC, standard microdilution method; conditions: 24 h
[3] = tested on: Enterococcus faecium VanA 419/ana; test: MIC, standard microdilution method; conditions: VANA419/ANA, 24 h
[4] = Carboxyfluorescein leakage assay, LUV from erythrocyte lipids; format: biochemical, human; conditions: LPPO 0.8 mg/L, 60 μM phospholipid, 25°C
Description: After evaporation of the solvent in vaccuo at 40°C, the phospholipids were dissolved in chloroform, filtered through glass fiber filters (Whatman) and concentrated under a stream of nitrogen. The lipid samples were stored at -80°C and used for liposome preparation. Vesicles to be used in the carboxyfluorescein (CF) leakage assay were prepared by mixing the appropriate amount of lipids (1 mg/ml) with chloroform/methanol 2:1 (v/v). The solvent was subsequently evaporated under a nitrogen gas stream obtaining a thin film on the walls of a glass tube. […] The release of vesicle contents after adding LPPO solutions was evaluated by the increased fluorescence intensity of CF released into the milieu which we express as the percentage of leakage. […] Maximum release of CF fluorescence (F max) was induced by lysing the vesicles with 0.1% (v/v) Triton X-100. Fluorescence intensity was monitored in time (excitation at 480 nm, emission at 515 nm) at 25°C using FluoroMax-3 (Jobin Yvon, Horriba) spectrofluorometer. The following equation was used to calculate the percent of CF leakage: % CF leakage = [(F–F 0)/(F max−F 0)] × 100, where F is the actual fluorescence intensity and F 0 is the fluorescence intensity before addition of the permeabilizing agent. […]

[5] = Critical micellar concentration (conductometry); format: physicochemical; conditions: 37°C
Description: Critical micellar concentration (CMC) values were measured (using conductometry method, COND 7, XS Laboratories instrument) and calculated according to literature procedure. LogD values were calculated using software package ACD Labs.

S. aureus MRSA 4591 = test: MIC, standard microdilution method; conditions: Staphylococcus aureus, 24 h
Streptococcus agalactiae [6] = test: Induction of resistance by repeated passages, MIC after each step; format: cell-based
Solubility in water = format: physicochemical
[7] = Conductance measurements in planar lipid membranes (BLM); format: biochemical; conditions: 5 mg/L, 1M KCl, 10 mM Tris, pH 7.4, 45 mV
Description: A Teflon chamber was divided into two compartments connected by a circular aperture of about 0.5 mm in diameter. Black lipid bilayer membranes were formed by painting a solution of 3% (w/v) asolectin (type IIS phosphatidylcholine; Sigma-Aldrich) in n-decane/butanol (9:1, v/v) across the hole. Both compartments contained 2 ml of 10 mM Tris, 1M KCl, pH 7.4. The temperature was kept at 25°C. Tested LPPO was added to the cis side of the membrane at a concentration of 5 mg/L. The membrane current was measured with Ag/AgCl electrodes (Theta) with salt bridges (applied voltage 45 mV, cis positive), amplified by LCA-200-100G or LCA-4k-1G amplifier (Femto) and digitized by KPCI-3108 card (Keithly). The signal was processed by QuB software. The histograms of single pore conductance was calculated from at least 500 events using a 50 pS bin size and fitted with Gaussian functions using Fityk software.

[8] = tested on: Enterococcus faecalis CCM 4224; test: MIC, standard microdilution method; conditions: CCM4224, 24 h
[9] = tested on: Staphylococcus aureus CCM 4223; test: MIC, standard microdilution method; conditions: CCM4223, 24 h
[10] = tested on: Enterococcus faecalis CCM 4224; test: Induction of resistance by repeated passages, MIC after each step; format: cell-based
[11] = tested on: Staphylococcus epidermidis 8700/B; test: MIC, standard microdilution method; conditions: 24 h
[12] = read-out: MIC after induction step, step 1
[13] = read-out: MIC after induction step, step 2
[14] = read-out: MIC after induction step, step 3
[15] = read-out: MIC after induction step, step 4
[16] = read-out: MIC after induction step, step 5
[17] = read-out: MIC after induction step, step 6
[18] = read-out: MIC after induction step, step 7
[19] = read-out: MIC after induction step, step 8
[20] = read-out: MIC after induction step, step 9
[21] = read-out: MIC after induction step, step 10
[22] = read-out: MIC after induction step, step 11
[23] = read-out: MIC after induction step, step 12
[24] = read-out: MIC after induction step, step 13
[25] = read-out: MIC after induction step, step 14
[26] = CCM4224, read-out: MIC after induction step, step 1
[27] = CCM4224, read-out: MIC after induction step, step 2
[28] = CCM4224, read-out: MIC after induction step, step 3
[29] = CCM4224, read-out: MIC after induction step, step 4
[30] = CCM4224, read-out: MIC after induction step, step 5
[31] = CCM4224, read-out: MIC after induction step, step 6
[32] = CCM4224, read-out: MIC after induction step, step 7
[33] = CCM4224, read-out: MIC after induction step, step 8
[34] = CCM4224, read-out: MIC after induction step, step 9
[35] = CCM4224, read-out: MIC after induction step, step 10
[36] = CCM4224, read-out: MIC after induction step, step 11
[37] = CCM4224, read-out: MIC after induction step, step 12
[38] = CCM4224, read-out: MIC after induction step, step 13
[39] = CCM4224, read-out: MIC after induction step, step 14

| Structure (SMILES) | MIC [1] | MIC (Streptococcus agalactiae [2]) | MIC [3] | CF release, % of the maximum (Triton X-100) [4] | CMC in H2O [5] | MIC (S. aureus MRSA 4591) | MIC (Streptococcus agalactiae [6]; [12]) | MIC (Streptococcus agalactiae [6]; [13]) | MIC (Streptococcus agalactiae [6]; [14]) | MIC (Streptococcus agalactiae [6]; [15]) | MIC (Streptococcus agalactiae [6]; [16]) | MIC (Streptococcus agalactiae [6]; [17]) | MIC (Streptococcus agalactiae [6]; [18]) | MIC (Streptococcus agalactiae [6]; [19]) | MIC (Streptococcus agalactiae [6]; [20]) | MIC (Streptococcus agalactiae [6]; [21]) | MIC (Streptococcus agalactiae [6]; [22]) | MIC (Streptococcus agalactiae [6]; [23]) | MIC (Streptococcus agalactiae [6]; [24]) | MIC (Streptococcus agalactiae [6]; [25]) | further results |
| --- | --- | --- | --- | --- | --- | --- | --- | --- | --- | --- | --- | --- | --- | --- | --- | --- | --- | --- | --- | --- | --- |
| CCCCCCCCCCCCCCCCOP(=O)(CCN1C[C@@H](O)[C@H](O)C1)OC[C@H]1O[C@@H](n2ccc(=O)[nH]c2=O)[C@H](O)[C@@H]1O (stereo partly shown) [DR5026] | 12.5 µg/mL (≈ 18.9 µM) | 3.12 µg/mL (≈ 4.72 µM) | 3.12 µg/mL (≈ 4.72 µM) | 8% | 4 mM and 3 g/L | 25 to 50 µg/mL (≈ 37.8 to 75.6 µM) | 3.1 µg/mL (≈ 4.68 µM) | 3.1 µg/mL (≈ 4.68 µM) | 3.1 µg/mL (≈ 4.68 µM) | 3.1 µg/mL (≈ 4.68 µM) | 3.1 µg/mL (≈ 4.68 µM) | 3.1 µg/mL (≈ 4.68 µM) | 6.2 µg/mL (≈ 9.37 µM) | 6.2 µg/mL (≈ 9.37 µM) | 3.1 µg/mL (≈ 4.68 µM) | 3.1 µg/mL (≈ 4.68 µM) | 3.1 µg/mL (≈ 4.68 µM) | 6.2 µg/mL (≈ 9.37 µM) | 6.2 µg/mL (≈ 9.37 µM) | 6.2 µg/mL (≈ 9.37 µM) | solubility (Solubility in water): > 10000 µg/mL; most frequent single pore conductance step [7]: 310 ± 128 pS; MIC [8]: 3.12 µg/mL (≈ 4.72 µM); MIC [9]: 25 µg/mL (≈ 37.8 µM); MIC [10, 26]: 6.2 µg/mL (≈ 9.37 µM); MIC [10, 27]: 6.2 µg/mL (≈ 9.37 µM); MIC [10, 28]: 6.2 µg/mL (≈ 9.37 µM); MIC [10, 29]: 6.2 µg/mL (≈ 9.37 µM); MIC [10, 30]: 6.2 µg/mL (≈ 9.37 µM); MIC [10, 31]: 12.5 µg/mL (≈ 18.9 µM); MIC [10, 32]: 12.5 µg/mL (≈ 18.9 µM); MIC [10, 33]: 12.5 µg/mL (≈ 18.9 µM); MIC [10, 34]: 12.5 µg/mL (≈ 18.9 µM); MIC [10, 35]: 12.5 µg/mL (≈ 18.9 µM); MIC [10, 36]: 12.5 µg/mL (≈ 18.9 µM); MIC [10, 37]: 12.5 µg/mL (≈ 18.9 µM); MIC [10, 38]: 12.5 µg/mL (≈ 18.9 µM); MIC [10, 39]: 12.5 µg/mL (≈ 18.9 µM); MIC [11]: 3.12 µg/mL (≈ 4.72 µM) |
| CCCCCCCCCCCCCCCCOCCCOP(=O)(CCN1C[C@@H](O)[C@H](O)C1)OC[C@H]1O[C@@H](n2ccc(=O)[nH]c2=O)[C@H](O)[C@@H]1O (stereo partly shown) [DR5047] | 6.25 µg/mL (≈ 8.68 µM) | 6.25 µg/mL (≈ 8.68 µM) | 6.25 µg/mL (≈ 8.68 µM) | 4% | 3 mM and 2 g/L | > 200 µg/mL | 6.2 µg/mL (≈ 8.61 µM) | 6.2 µg/mL (≈ 8.61 µM) | 6.2 µg/mL (≈ 8.61 µM) | 6.2 µg/mL (≈ 8.61 µM) | 6.2 µg/mL (≈ 8.61 µM) | 6.2 µg/mL (≈ 8.61 µM) | 3.1 µg/mL (≈ 4.31 µM) | 6.2 µg/mL (≈ 8.61 µM) | 6.2 µg/mL (≈ 8.61 µM) | 6.2 µg/mL (≈ 8.61 µM) | 6.2 µg/mL (≈ 8.61 µM) | 6.2 µg/mL (≈ 8.61 µM) | 6.2 µg/mL (≈ 8.61 µM) | 6.2 µg/mL (≈ 8.61 µM) | solubility (Solubility in water): > 10000 µg/mL; further conductance states observed [7]: 270 ± 79 pS and 510 ± 77 pS; most frequent single pore conductance step [7]: 70 ± 37 pS; MIC [8]: 6.25 µg/mL (≈ 8.68 µM); MIC [9]: > 200 µg/mL; MIC [10, 26]: 12.5 µg/mL (≈ 17.4 µM); MIC [10, 27]: 12.5 µg/mL (≈ 17.4 µM); MIC [10, 28]: 12.5 µg/mL (≈ 17.4 µM); MIC [10, 29]: 12.5 µg/mL (≈ 17.4 µM); MIC [10, 30]: 25 µg/mL (≈ 34.7 µM); MIC [10, 31]: 25 µg/mL (≈ 34.7 µM); MIC [10, 32]: 25 µg/mL (≈ 34.7 µM); MIC [10, 33]: 25 µg/mL (≈ 34.7 µM); MIC [10, 34]: 25 µg/mL (≈ 34.7 µM); MIC [10, 35]: 50 µg/mL (≈ 69.5 µM); MIC [10, 36]: 25 µg/mL (≈ 34.7 µM); MIC [10, 37]: 25 µg/mL (≈ 34.7 µM); MIC [10, 38]: 25 µg/mL (≈ 34.7 µM); MIC [10, 39]: 25 µg/mL (≈ 34.7 µM); MIC [11]: 3.12 µg/mL (≈ 4.34 µM) |
